Source: ChEMBL document CHEMBL1146892, “Pyrrolidine bis-cyclic guanidines with antimicrobial activity against drug-resistant Gram-positive pathogens identified from a mixture-based combinatorial library” (2006)
Values after ≈ are worked out from the molar mass of the structure shown.

Columns and labels:
Type in all cases: functional
Enterococcus faecalis = experiment: Antibacterial activity against vancomycin-resistant Enterococcus faecalis ATCC 51299
Escherichia coli = experiment: Antibacterial activity against Escherichia coli ATCC 25922
Staphylococcus aureus = experiment: Antibacterial activity against methicillin-resistant Staphylococcus aureus ATCC 33591

Compound	MBC (Enterococcus faecalis) [µg/mL]	MIC (Enterococcus faecalis) [µg/mL]	MBC (Escherichia coli) [µg/mL]	MIC (Escherichia coli) [µg/mL]	MBC (Staphylococcus aureus) [µg/mL]	MIC (Staphylococcus aureus) [µg/mL]
CCCC[C@@H]1CN([C@H](Cc2ccc3ccccc3c2)CN2CCCC2CN2C(N)=NC[C@@H]2C)C(=N)N1CCc1cc(C(F)(F)F)cc(C(F)(F)F)c1 (stereo partly specified)	> 10	< 2.5	> 10	> 10	2.5 (≈ 3.43 µM)	< 2.5
CC(C)Cc1ccc(C(C)CN2C(=N)N([C@H](Cc3ccc4ccccc4c3)CN3CCCC3CN3C(N)=NC[C@@H]3C)C[C@@H]2CC2CCCCC2)cc1 (stereo partly specified)	2.5 (≈ 3.55 µM)	> 10	> 10	> 10	2.5 (≈ 3.55 µM)	2.5 (≈ 3.55 µM)
C[C@H]1CN=C(N)N1CC1CCCN1C[C@H](CC1CCCCC1)N1C[C@H](CC2CCCCC2)N(CCc2cc(C(F)(F)F)cc(C(F)(F)F)c2)C1=N (stereo partly specified)	> 10	< 2.5	> 10	> 10	< 2.5	< 2.5
C[C@H]1CN=C(N)N1CC1CCCN1C[C@@H](CC1CCCCC1)N1C[C@@H](CC2CCCCC2)N(CCc2cc(C(F)(F)F)cc(C(F)(F)F)c2)C1=N (stereo partly specified)	> 10	< 2.5	5 (≈ 6.89 µM)	5 (≈ 6.89 µM)	2.5 (≈ 3.44 µM)	< 2.5
C[C@H]1CN=C(N)N1CC1CCCN1C[C@@H](Cc1ccc2ccccc2c1)N1C[C@H](CC2CCCCC2)N(CCc2cc(C(F)(F)F)cc(C(F)(F)F)c2)C1=N (stereo partly specified)	< 2.5	< 2.5	5 (≈ 6.49 µM)	5 (≈ 6.49 µM)	< 2.5	< 2.5
CC(C)Cc1ccc(C(C)CN2C(=N)N([C@@H](CC3CCCCC3)CN3CCCC3CN3C(N)=NC[C@@H]3C)C[C@@H]2CC2CCCCC2)cc1 (stereo partly specified)	> 10	< 2.5	5 (≈ 7.58 µM)	5 (≈ 7.58 µM)	2.5 (≈ 3.79 µM)	< 2.5
CCCC[C@@H]1CN([C@@H](CC2CCCCC2)CN2CCCC2CN2C(N)=NC[C@@H]2Cc2ccccc2)C(=N)N1CC(C)c1ccc(CC(C)C)cc1 (stereo partly specified)	< 2.5	< 2.5	> 10	> 10	2.5 (≈ 3.59 µM)	< 2.5
N=C1N(CCc2cc(C(F)(F)F)cc(C(F)(F)F)c2)[C@@H](CC2CCCCC2)CN1[C@H](Cc1ccc2ccccc2c1)CN1CCCC1CN1C(N)=NC[C@@H]1Cc1ccccc1 (stereo partly specified)	< 2.5	< 2.5	> 10	> 10	< 2.5	< 2.5
CCCC[C@@H]1CN([C@H](Cc2ccc3ccccc3c2)CN2CCCC2CN2C(N)=NC[C@@H]2Cc2ccccc2)C(=N)N1CCc1cc(C(F)(F)F)cc(C(F)(F)F)c1 (stereo partly specified)	> 10	< 2.5	> 10	> 10	< 2.5	< 2.5
CCCC[C@@H]1CN([C@H](Cc2ccc3ccccc3c2)CN2CCCC2CN2C(N)=NC[C@@H]2C)C(=N)N1CC(C)c1ccc(CC(C)C)cc1 (stereo partly specified)	2 (≈ 3.01 µM)	< 2.5	5 (≈ 7.53 µM)	5 (≈ 7.53 µM)	2.5 (≈ 3.77 µM)	2.5 (≈ 3.77 µM)
CCCC[C@@H]1CN([C@@H](CC2CCCCC2)CN2CCCC2CN2C(N)=NC[C@@H]2C)C(=N)N1CC(C)c1ccc(CC(C)C)cc1 (stereo partly specified)	> 10	< 2.5	> 10	> 10	2.5 (≈ 4.03 µM)	2.5 (≈ 4.03 µM)
CCCC[C@@H]1CN([C@@H](CC2CCCCC2)CN2CCCC2CN2C(N)=NC[C@@H]2C)C(=N)N1CCc1cc(C(F)(F)F)cc(C(F)(F)F)c1 (stereo partly specified)	> 10	> 10	> 10	> 10	2.5 (≈ 3.65 µM)	2.5 (≈ 3.65 µM)
CCCC[C@@H]1CN([C@H](CC2CCCCC2)CN2CCCC2CN2C(N)=NC[C@@H]2C)C(=N)N1CCc1cc(C(F)(F)F)cc(C(F)(F)F)c1 (stereo partly specified)	> 10	> 10	> 10	> 10	< 2.5	< 2.5
CC(C)Cc1ccc(C(C)CN2C(=N)N([C@H](Cc3ccc4ccccc4c3)CN3CCCC3CN3C(N)=NC[C@@H]3Cc3ccccc3)C[C@@H]2CC2CCCCC2)cc1 (stereo partly specified)	> 10	< 2.5	> 10	> 10	< 2.5	< 2.5
CCCC[C@@H]1CN([C@H](CC2CCCCC2)CN2CCCC2CN2C(N)=NC[C@@H]2C)C(=N)N1CC(C)c1ccc(CC(C)C)cc1 (stereo partly specified)	> 10	< 2.5	> 10	> 10	2.5 (≈ 4.03 µM)	< 2.5
C[C@H]1CN=C(N)N1CC1CCCN1C[C@@H](CC1CCCCC1)N1C[C@H](CC2CCCCC2)N(CCc2cc(C(F)(F)F)cc(C(F)(F)F)c2)C1=N (stereo partly specified)	2.5 (≈ 3.44 µM)	< 2.5	5 (≈ 6.89 µM)	5 (≈ 6.89 µM)	2.5 (≈ 3.44 µM)	< 2.5
CC(C)Cc1ccc(C(C)CN2C(=N)N([C@H](CC3CCCCC3)CN3CCCC3CN3C(N)=NC[C@@H]3C)C[C@H]2CC2CCCCC2)cc1 (stereo partly specified)	< 2.5	< 2.5	5 (≈ 7.58 µM)	5 (≈ 7.58 µM)	2.5 (≈ 3.79 µM)	< 2.5
CC(C)Cc1ccc(C(C)CN2C(=N)N([C@H](Cc3ccc4ccccc4c3)CN3CCCC3CN3C(N)=NC[C@@H]3C)C[C@H]2CC2CCCCC2)cc1 (stereo partly specified)	< 2.5	< 2.5	> 10	> 10	< 2.5	< 2.5
C[C@H]1CN=C(N)N1CC1CCCN1C[C@@H](Cc1ccc2ccccc2c1)N1C[C@@H](CC2CCCCC2)N(CCc2cc(C(F)(F)F)cc(C(F)(F)F)c2)C1=N (stereo partly specified)	< 2.5	< 2.5	> 10	> 10	< 2.5	< 2.5
CC(C)Cc1ccc(C(C)CN2C(=N)N([C@H](CC3CCCCC3)CN3CCCC3CN3C(N)=NC[C@@H]3C)C[C@@H]2CC2CCCCC2)cc1 (stereo partly specified)	> 10	< 2.5	5 (≈ 7.58 µM)	5 (≈ 7.58 µM)	< 2.5	< 2.5
CC(C)Cc1ccc(C(C)CN2C(=N)N([C@@H](CC3CCCCC3)CN3CCCC3CN3C(N)=NC[C@@H]3C)C[C@H]2CC2CCCCC2)cc1 (stereo partly specified)	> 10	< 2.5	> 10	> 10	< 2.5	< 2.5
N=C1N(CCc2cc(C(F)(F)F)cc(C(F)(F)F)c2)[C@H](CC2CCCCC2)CN1[C@H](Cc1ccc2ccccc2c1)CN1CCCC1CN1C(N)=NC[C@@H]1Cc1ccccc1 (stereo partly specified)	> 10	< 2.5	> 10	> 10	2.5 (≈ 2.96 µM)	< 2.5
CCCC[C@@H]1CN([C@H](Cc2ccc3ccccc3c2)CN2CCCC2CN2C(N)=NC[C@@H]2Cc2ccccc2)C(=N)N1CC(C)c1ccc(CC(C)C)cc1 (stereo partly specified)	> 10	< 2.5	> 10	> 10	2.5 (≈ 3.38 µM)	< 2.5
CC(C)Cc1ccc(C(C)CN2C(=N)N([C@H](Cc3ccc4ccccc4c3)CN3CCCC3CN3C(N)=NC[C@@H]3Cc3ccccc3)C[C@H]2CC2CCCCC2)cc1 (stereo partly specified)	> 10	< 2.5	> 10	> 10	2.5 (≈ 3.2 µM)	< 2.5
C[C@H]1CN=C(N)N1CC1CCCN1C[C@H](CC1CCCCC1)N1C[C@@H](CC2CCCCC2)N(CCc2cc(C(F)(F)F)cc(C(F)(F)F)c2)C1=N (stereo partly specified)	> 10	< 2.5	> 10	> 10	< 2.5	< 2.5
CCCC[C@@H]1CN([C@@H](CC2CCCCC2)CN2CCCC2CN2C(N)=NC[C@@H]2Cc2ccccc2)C(=N)N1CCc1cc(C(F)(F)F)cc(C(F)(F)F)c1 (stereo partly specified)	< 2.5	< 2.5	> 10	> 10	< 2.5	< 2.5
